According to patent US8728771B2, “L-succinylaminoacylase and process for producing L-amino acid using it” (Toyo Boseki Kabushiki Kaisha, priority 2008, dated 2014):

B1: L-succinylaminoacylase of the present invention: protein of amino acid sequence SEQ ID No: 2, L-succinylaminoacylase of IFO 12983 strain of Geobacillus stearothermophilus (protein, listed as Geobacillus stearothermophilus)
chain: MKEIIQQMKAELWSIFDYLHRHPEISWEEWGTTEFVRRELEREGYRVWTFADCPGVVAEIGDGPFMVGVRSDMDALWQEVNGVWQPNHACGHDAHMTIVLGVAKLLRRIGYEPPGTLRFLFQPAEEKGTGALKLIEKGAVDGMSFLYGVHLRPVQEVKSGYATPAIIHGAAQCIEGRIRGMAAHAARPHLGVNVIEVGSAIVQELGKIHVDPQVPATIKMTRFHAGEKDVNTIPDYAEFSLDLRAQTNEAMEQLVERLRRVVNGVAAIYGAEIELDERTRIVAANPDLDAKRLMEEAIIAVLGEEKCIPPVITSGGEDFHFYAFKKPELKTTMLGLGCDLRPGLHHPQMTFQRDDLLSGIEILARTVINTFALQGEKERVSIAANH

Legend:
[1] = test system: L-succinylaminoacylase of the present invention; assay: Comparative experiment for enzymatic activity (ii), enzyme of the present invention (Example 7); assay type: biochemical, Geobacillus stearothermophilus IFO 12983 strain; settings: 4 hours, 50° C., pH 7.5, cobalt acetate
Method: (§1) Each of N-succinyl-DL-4-bromophenylalanine, N-succinyl-DL-biphenylalanine, N-succinyl-DL-3,4-dichlorophenylalanine, N-succinyl-DL-cyclohexylglycine, and N-succinyl-DL-tert-leucine synthesized in the above (3) was used to prepare an amino acid solution of 10% by weight (pH 7.5). Mixed solution of 0.25 ml of 0.1M HEPES-NaOH buffer (pH 7.5), 0.025 ml of 0.1M cobalt acetate solution, 0.5 ml of each amino acid solution and 4.2 ml of distilled water was prepared. To the resulting solution was added 0.025 ml of a solution of the L-succinylaminoacylase disclosed in Example 1 of Patent Document 3 made into 5 mg/ml or a solution of the L-succinylaminoacylase of the present invention prepared in the above Example 1 made into 5 mg/ml. The resulting reaction solution was subjected to a reaction for 4 hours with stirring at 50° C. After completion of the reaction, a sample was collected therefrom and subjected to an HPLC measurement under the same condition as in Example 2 to calculate the conversion rate into each of the L-amino acids corresponding to N-succinyl-DL-4-bromophenylalanine, N-succinyl-DL-biphenylalanine, N-succinyl-DL-3,4-dichlorophenylalanine, N-succinyl-DL-cyclohexylglycine, and N-succinyl-DL-tert-leucine.

[2] = test system: L-succinylaminoacylase disclosed in Patent Document 3; assay: Comparative experiment for enzymatic activity (ii), enzyme of Patent Document 3 (Example 7); assay type: biochemical, Geobacillus stearothermophilus NCA 1503 strain; settings: 4 hours, 50° C., pH 7.5, cobalt acetate
Method: as §1

[3] = test system: L-succinylaminoacylase of the present invention; assay: Hydrolysis of N-succinyl-DL-amino acid to L-amino acid by L-succinylaminoacylase, HPLC (Examples 2 and 3); assay type: biochemical, Geobacillus stearothermophilus IFO 12983 strain; settings: for Yield (%) of corresponding L-amino acid: 10% by weight substrate, 96 hours, same condition as in Example 2 (57° C., 0.5 mM CoCl2)
Method: The N-succinyl-DL-tert-leucine synthesized in the above (1) was dissolved in distilled water and its pH was adjusted using 0.1N sodium hydroxide (manufactured by Nacalai tesque) to prepare a 5% by weight solution of N-succinyl-DL-tert-leucine (pH 7 to 8). […] This reaction solution was kept at 57° C. for 144 hours with stirring.
Column: Inertsil ODS-2 (particle size: 5 μm; 4.6 mm inner diameter×250 mm length) manufactured by GL Science
Eluant: aqueous solution of phosphate (pH 2.3)/acetonitrile for HPLC=80:20
Column temperature: 40° C.
The reaction was carried out for 96 hours under the same condition as in Example 2 using N-succinyl-DL-valine, N-succinyl-DL-phenylalanine, N-succinyl-DL-tryptophan, N-succinyl-DL-asparagine, N-succinyl-DL-serine, N-succinyl-DL-tyrosine, or N-succinyl-DL-cyclohexylglycine synthesized in the above (2) and (3) instead of N-succinyl-DL-tert-leucine. However, concentration of each N-succinyl-DL-amino acid was made 10% by weight. After completion of the reaction, a sample was collected therefrom and subjected an HPLC measurement under the same condition as in Example 2 to calculate the conversion rate into each L-amino acid corresponding to N-succinyl-DL-valine, N-succinyl-DL-phenylalanine, N-succinyl-DL-tryptophan, N-succinyl-DL-asparagine, N-succinyl-DL-serine, N-succinyl-DL-tyrosine, and N-succinyl-DL-cyclohexylglycine.

[4] = test system: L-succinylaminoacylase of the present invention and N-succinylamino acid racemase; assay: Synthesis of L-tert-leucine using L-succinylaminoacylase and N-succinylamino acid racemase (i) (Example 4); assay type: biochemical, Geobacillus stearothermophilus; settings: 1% by weight substrate, racemase prepared in (1) added, 90 hours; 100% is the theoretically highest yield
Method: The reaction was carried out for 90 hours under the same condition as in Example 2 except that the concentration of the N-succinyl-DL-tert-leucine solution was made 1% by weight and that 0.1 ml of a 9.6 mg/ml solution of N-succinylamino acid racemase prepared in the above (1) was previously added to the reaction solution. After completion of the reaction, the sample was collected therefrom and subjected to an HPLC measurement under the same condition as in Example 2 to calculate the yield of L-tert-leucine whereupon the yield was not lower than 90% and the value being nearly equal to 100% which is the theoretically highest yield was achieved.

[5] = test system: L-succinylaminoacylase of the present invention and N-succinylamino acid racemase; assay: Synthesis of L-tert-leucine using L-succinylaminoacylase and N-succinylamino acid racemase (ii) (Example 5); assay type: biochemical; settings: 1% by weight substrate, racemase prepared in (2) added, up to 120 hours
Method: The same reaction as in Example 4 was carried out for 120 hours except that the product prepared in the above (2) was used as an N-succinylamino acid racemase. The sample was collected after 24 hours, 48 hours and 120 hours from the start of the reaction and subjected to an HPLC measurement under the same condition as in Example 2 to confirm the synthesis of L-tert-leucine from N-succinyl-DL-tert-leucine.

[6] = test system: L-succinylaminoacylase of the present invention; assay: Comparative experiment for enzymatic activity (i), with racemase (Example 6); assay type: biochemical, Geobacillus stearothermophilus IFO 12983 strain; settings: 5% by weight substrate, racemase (2), 50° C., up to 144 hours, FIG. 3
Method: The N-succinyl-DL-tert-leucine synthesized in the above (1) was dissolved in distilled water and its pH was adjusted using 0.1N sodium hydroxide (manufactured by Nacalai tesque) to prepare a 5% by weight solution of N-succinyl-DL-tert-leucine (pH 7 to 8). To 10 ml of this solution were added 0.5 mM (final concentration) of CoCl2 and 0.1 ml of the N-succinylamino acid racemase in the above (2) prepared in 10 mg/ml. To the resulting solution was added 0.1 ml of the L-succinylaminoacylase disclosed in Example 1 of Patent Document 3 made into 2.5 mg/ml or a solution of the L-succinylaminoacylase of the present invention prepared in the above Example 1 and made into 2.5 mg/ml. The prepared reaction solution was kept at 50° C. for 144 hours with stirring. The sample was collected after 24 hours, 48 hours, 72 hours and 144 hours from the start of the reaction and subjected to an HPLC measurement to confirm the peaks of succinyl-form compound and free-form compound whereby the synthesis of L-tert-leucine from N-succinyl-DL-tert-leucine was confirmed.

[7] = Physical and chemical properties of the L-succinylaminoacylase (temperature stability, optimum temperature, optimum pH); assay type: physicochemical
Method: Physical and chemical properties of the L-succinylaminoacylase of the present invention are as shown in the following (i) to (v).
(iii) Temperature stability: When it is subjected to a heating treatment for 30 minutes, it is stable at 70° C. and is inactivated at 75° C. or higher;
(iv) Optimum temperature: When it is made to react at pH 7 to 8, its action is optimum at the temperature of 55 to 60° C.; and
(v) Optimum pH: When it is made to react at 60° C. for 30 minutes, its action is optimum at pH 7.

[8] = Metal ion dependence of L-succinylaminoacylase activity; assay type: biochemical
Source text: Examples of the divalent or univalent metal ion include Mn^2+, Co^2+, Mg^2+, Ca^2+, Ni^2+ and K^+ and, among them, Co^2+ is particularly preferred. It has been known that, when Co^2+ is used, the activity increased to an extent of twice or more as compared with the case where Zn^2+ is used.

[9] = heating treatment for 30 minutes

Molecule | Conversion rate by L-succinylaminoacylase of the present invention (%) [1] | Conversion rate by L-succinylaminoacylase of Patent Document 3 (%) [2] | Yield (%) of corresponding L-amino acid [3] | further results
O=C(O)CCC(=O)NC(Cc1ccc(Br)cc1)C(=O)O (racemic) [N-succinyl-DL-4-bromophenylalanine] | 97.5% | 97.1% |  | 
NC(=O)CC(NC(=O)CCC(=O)O)C(=O)O (racemic) [N-succinyl-DL-asparagine] |  |  | 42.5% | 
O=C(O)CCC(=O)NC(Cc1ccc(-c2ccccc2)cc1)C(=O)O (racemic) [N-succinyl-DL-biphenylalanine] | 74.1% | 8.8% |  | 
O=C(O)CCC(=O)NC(C(=O)O)C1CCCCC1 (racemic) [N-succinyl-DL-cyclohexylglycine] | 97.3% | 53.6% | 49.2% | 
O=C(O)CCC(=O)NC(Cc1ccc(Cl)c(Cl)c1)C(=O)O (racemic) [N-succinyl-DL-dichlorophenylalanine, N-succinyl-DL-3,4-dichlorophenylalanine] | 83.3% | 82.0% |  | 
O=C(O)CCC(=O)NC(Cc1ccccc1)C(=O)O (racemic) [N-succinyl-DL-phenylalanine] |  |  | 37.5% | 
O=C(O)CCC(=O)NC(CO)C(=O)O (racemic) [N-succinyl-DL-serine] |  |  | 43.4% | 
CC(C)(C)C(NC(=O)CCC(=O)O)C(=O)O (racemic) [N-succinyl-DL-tert-leucine] | 45.7% | 0.1% |  | Yield of L-tert-leucine [4]: ≥ 90%; Yield of L-tert-leucine [5]: ≥ 90%; Yield (conversion rate) of L-tert-leucine ([3]; 5% by weight substrate, 0.5 mM CoCl2, 57° C., pH 7 to 8, up to 144 hours, 50% is the theoretically highest yield): ~50%; Conversion rate from N-succinyl-DL-tert-leucine to L-tert-leucine compared with enzyme of Patent Document 3 [6]: significantly high conversion rate
O=C(O)CCC(=O)NC(Cc1c[nH]c2ccccc12)C(=O)O (racemic) [N-succinyl-DL-tryptophan] |  |  | 31.4% | 
O=C(O)CCC(=O)NC(Cc1ccc(O)cc1)C(=O)O (racemic) [N-succinyl-DL-tyrosine] |  |  | 19.1% | 
CC(C)C(NC(=O)CCC(=O)O)C(=O)O (racemic) [N-succinyl-DL-valine] |  |  | 42.4% | 
B1 |  |  |  | Temperature stability: inactivated at [7, 9]: ≥ 75 °C; Temperature stability: stable at [7, 9]: 70 °C; Optimum pH ([7]; reaction at 60° C. for 30 minutes): 7; Increase of activity with Co^2+ as compared with Zn^2+ [8]: twice or more
